Source: patent publication US20240308990A1, “CRYSTAL FORM OF ENTRECTINIB AND PREPARATION METHOD THEREFOR” (QILU PHARMACEUTICAL CO., LTD., priority 2021, published 2024)
Converted amounts (≈) assume the structure as drawn. Where two headings read alike, the source gives them in different places.

Experiments:
[1] = Crystal microscopic morphology by scanning electron microscope; assay type: physicochemical
Description: The experimental method was as follows: an appropriate amount of test sample was taken, uniformly spread on a conductive adhesive tape, sprayed with gold, and observed under an electron microscope.
(§1) The determination results are as follows.

[2] = Preparation stability of crystal forms (mixing and slurrying, X-RPD); assay type: physicochemical; details: for Converted crystal form: 0.1 g mixed with 0.1 g crystal form A of Example 2, slurried in acetone/water at room temperature for 10 h
Method: The mixing and slurring method was as follows: 0.1 g of each of the two crystal forms to be mixed was weighed and added into a single-necked flask. 2 mL of acetone and 1 mL of water were added. The mixture was stirred and slurried at room temperature for 10 h, filtered, and dried in air at room temperature to obtain crystals. The crystal forms were determined by X-RPD.

[3] = Crushing, static electricity and fluidity test; assay type: physicochemical; details: for Static electricity: reference forms: after crushing
Description: as §1

[4] = Crystal form stability test (affecting factors); assay type: physicochemical; details: for Crystal form stability (in words): after a 10-day affecting factor test
Method: The experimental method was as follows: a ground sample (100 mg) was filled in a groove of a glass plate, the plane of the sample was made to the same level as the glass surface by using a glass slide, the sample was placed in a PANalytical X-ray powder diffractometer, and a 40 kV and 40 mA copper X-ray source was used, with a scanning range of 3-45° (2θ) and a scanning rate of 8°/min. The scanning error is typically ±0.2 degrees (2θ).

[5] = Chemical stability test (affecting factors, HPLC purity); assay type: physicochemical; details: for Chemical stability (in words): after a 10-day affecting factor test
Description: For the specific method for testing the stability, reference could be made to high performance liquid chromatography in General Chapter 0512, Chinese Pharmacopoeia, Volume IV, 2015 Edition.

[6] = Solubility comparison of crystals; assay type: physicochemical; details: for Solubility in 95% ethanol / Solubility in aqueous solution with pH = 1 / solubility at 20 min: 25° C., dissolution time 20 min; for Solubility compared with crystal form 2 and crystal form 4: 95% ethanol and aqueous solution with pH=1; for solubility at 20 min: thermodynamic from solid
Method: • Dissolution temperature: 25° C. • Dissolution time: 20 min

[7] = background statement; cited from earlier work
[8] = High humidity condition 90% RH, 10 days
[9] = High temperature condition 60° C., 10 days
[10] = Light condition 5000 lux/h, 10 days

Row | electron microscopy results of the crystal: length of larger crystals/particles [1] | electron microscopy results of the crystal: shape and size uniformity [1] | Converted crystal form [2] | Fluidity [3] | Crystal form found ([4]; 0 day) | Crystal form found [4, 8] | Crystal form found [4, 9] | Crystal form found [4, 10] | Purity (%) ([5]; 0 day) | Purity (%) [5, 8] [%] | Purity (%) [5, 9] [%] | Purity (%) [5, 10] [%] | Solubility in 95% ethanol [6] [mg/mL] | Solubility in aqueous solution with pH = 1 [6] [mg/mL] | Compound | Static electricity [3] | further results
1 | ~10 μm | Rod-shaped, relatively uniform size, | – | good fluidity | form B | form B | form B | form B | 99.91 | 99.90 | 99.91 | 99.91 | 26.2 (≈ 46.7 mM) | 21.0 | CN1CCN(c2ccc(C(=O)Nc3n[nH]c4ccc(Cc5cc(F)cc(F)c5)cc34)c(NC3CCOCC3)c2)CC1 [Crystal form B of Example 5, N-[5-(3,5-difluorobenzyl)-1H-indazol-3-yl]-4-(4-methylpiperazin-1-yl)-2-[(tetrahydro-2H-pyran-4-yl)amino]benzamide] | – | Crystal form stability (in words) [4]: good crystal form stability; Chemical stability (in words) [5]: good chemical stability; Fluidity ([3]; listed as crystal form B): good fluidity; Solubility compared with crystal form 2 and crystal form 4 [6]: better solubility
2 | about 85 μm | Sheet-shaped, fragile, non-uniform | Crystal form A | crushing, and poor fluidity | form 2 | form 2 | form 2 | form 2 | 99.34 | 99.33 | 99.34 | 99.33 | 21.1 (≈ 37.6 mM) | 19.1 | CN1CCN(c2ccc(C(=O)Nc3n[nH]c4ccc(Cc5cc(F)cc(F)c5)cc34)c(NC3CCOCC3)c2)CC1 [Crystal form 2 of Reference Example 2, entrectinib] | relatively strong static electricity after | Fluidity ([3]; listed as crystal form 2): poor fluidity; Static electricity ([3]; listed as crystal form 2): relatively strong static electricity after being crushed; Solubility (in words) [7]: poor solubility
3 | – | – | – | – | form 1 | form 1 | form 2 | form 1 | 99.21 | 99.20 | 99.20 | 99.19 | – | – | CN1CCN(c2ccc(C(=O)Nc3n[nH]c4ccc(Cc5cc(F)cc(F)c5)cc34)c(NC3CCOCC3)c2)CC1 [Crystal form 1 of Reference Example 1, entrectinib] | – | Crystal form stability (in words) ([4]; listed as crystal form 1 in Reference Example 1): unstable and shows crystal form conversion under a high temperature condition; Crystal form stability (in words) [7]: unstable and is easy to be converted into another crystal form
4 | ~20 μm | Rod-shaped, relatively uniform size, | – | good fluidity | form A | form A | form A | form A | 99.92 | 99.92 | 99.91 | 99.91 | – | – | CN1CCN(c2ccc(C(=O)Nc3n[nH]c4ccc(Cc5cc(F)cc(F)c5)cc34)c(NC3CCOCC3)c2)CC1 [Crystal form A of Example 2, N-[5-(3,5-difluorobenzyl)-1H-indazol-3-yl]-4-(4-methylpiperazin-1-yl)-2-[(tetrahydro-2H-pyran-4-yl)amino]benzamide] | – | Crystal form stability (in words) [4]: good crystal form stability; Chemical stability (in words) [5]: good chemical stability; Crystal conversion in acetone/water slurry (in words) ([2]; acetone/water system, room temperature, 10 h): will not be subjected to crystal conversion; Fluidity ([3]; listed as crystal form A): good fluidity; Solubility compared with crystal form 2 and crystal form 4 [6]: better solubility; solubility at 20 min ([6]; 95% ethanol, 25 °C, organic solvent or mixture, read-out: Solubility in 95% ethanol): 28.4 mg/mL (≈ 50.7 mM); solubility at 20 min ([6]; aqueous solution with pH 1, 25 °C, pH 1, simulated gastric fluid, read-out: Solubility in aqueous solution with pH = 1): 22.6 mg/mL (≈ 40.3 mM)

Second part, the compound before the results:

Row | Compound | electron microscopy results of the crystal: length of larger crystals/particles [1] | electron microscopy results of the crystal: shape and size uniformity [1] | Converted crystal form [2] | Fluidity [3] | Crystal form found ([4]; 0 day) | Crystal form found [4, 8] | Crystal form found [4, 9] | Crystal form found [4, 10] | Purity (%) ([5]; 0 day) | Purity (%) [5, 8] [%] | Purity (%) [5, 9] [%] | Purity (%) [5, 10] [%] | Solubility in 95% ethanol [6] [mg/mL] | Solubility in aqueous solution with pH = 1 [6] [mg/mL] | Static electricity [3] | further results
5 | CN1CCN(c2ccc(C(=O)Nc3n[nH]c4ccc(Cc5cc(F)cc(F)c5)cc34)c(NC3CCOCC3)c2)CC1 [Crystal form AZT-B of Reference Example 5] [entrectinib] | more than about 1000 μm | Irregular bulk-shaped, non-uniform | Crystal form A | poor fluidity | – | – | – | – | – | – | – | – | – | – | strong static electricity after crushing, and | Fluidity ([3]; listed as crystal form AZT-B): poor fluidity; Static electricity ([3]; listed as crystal form AZT-B): relatively strong static electricity after being crushed
6 | CN1CCN(c2ccc(C(=O)Nc3n[nH]c4ccc(Cc5cc(F)cc(F)c5)cc34)c(NC3CCOCC3)c2)CC1 [Crystal form 4 of Reference Example 3, entrectinib] | – | – | Crystal form A | – | form 4 | form 4 | form 4 | form 4 | 99.29 | 99.29 | 99.28 | 99.28 | 20.5 (≈ 36.6 mM) | 18.8 | – | –
7 | CN1CCN(c2ccc(C(=O)Nc3n[nH]c4ccc(Cc5cc(F)cc(F)c5)cc34)c(NC3CCOCC3)c2)CC1 [Crystal form AZT-A of Reference Example 4] [entrectinib] | about 700 μm | Irregular bulk-shaped, non-uniform | Crystal form A | poor fluidity | – | – | – | – | – | – | – | – | – | – | strong static electricity after crushing, and | Fluidity ([3]; listed as crystal form AZT-A): poor fluidity; Static electricity ([3]; listed as crystal form AZT-A): relatively strong static electricity after being crushed
8 | CN1CCN(c2ccc(C(=O)Nc3n[nH]c4ccc(Cc5cc(F)cc(F)c5)cc34)c(NC3CCOCC3)c2)CC1 [Crystal form AZT-E of Reference Example 6] [entrectinib] | more than about 1000 μm | Irregular bulk-shaped, non-uniform | Crystal form A | poor fluidity | – | – | – | – | – | – | – | – | – | – | strong static electricity after crushing, and | Fluidity ([3]; listed as crystal form AZT-E): poor fluidity; Static electricity ([3]; listed as crystal form AZT-E): relatively strong static electricity after being crushed
